Data: ChEMBL document CHEMBL1201862, “PubChem BioAssay data set” (2004)
The source made the active and inactive calls.

Columns and labels:
[1] = target: Bifunctional protein GlmU (Mycobacterium tuberculosis, UniProt P9WMN3); experiment: Inhibitors of Mycobacterial Glucosamine-1-phosphate acetyl transferase (GlmU). Secondary screen.; parameters: species or system Mycobacterium tuberculosis H37Rv
Aminopeptidase N = target: T1, Aminopeptidase N (Plasmodium falciparum FcB1/Columbia, UniProt O96935); experiment: P. falciparum M1AAP inhibitors, biochemical, fluorogenic H-Leu-NHMec substrate, 1536-well (AID 1445); parameters: species or system Plasmodium falciparum 3D7, 3D7
T1 sequence (O96935 whole entry): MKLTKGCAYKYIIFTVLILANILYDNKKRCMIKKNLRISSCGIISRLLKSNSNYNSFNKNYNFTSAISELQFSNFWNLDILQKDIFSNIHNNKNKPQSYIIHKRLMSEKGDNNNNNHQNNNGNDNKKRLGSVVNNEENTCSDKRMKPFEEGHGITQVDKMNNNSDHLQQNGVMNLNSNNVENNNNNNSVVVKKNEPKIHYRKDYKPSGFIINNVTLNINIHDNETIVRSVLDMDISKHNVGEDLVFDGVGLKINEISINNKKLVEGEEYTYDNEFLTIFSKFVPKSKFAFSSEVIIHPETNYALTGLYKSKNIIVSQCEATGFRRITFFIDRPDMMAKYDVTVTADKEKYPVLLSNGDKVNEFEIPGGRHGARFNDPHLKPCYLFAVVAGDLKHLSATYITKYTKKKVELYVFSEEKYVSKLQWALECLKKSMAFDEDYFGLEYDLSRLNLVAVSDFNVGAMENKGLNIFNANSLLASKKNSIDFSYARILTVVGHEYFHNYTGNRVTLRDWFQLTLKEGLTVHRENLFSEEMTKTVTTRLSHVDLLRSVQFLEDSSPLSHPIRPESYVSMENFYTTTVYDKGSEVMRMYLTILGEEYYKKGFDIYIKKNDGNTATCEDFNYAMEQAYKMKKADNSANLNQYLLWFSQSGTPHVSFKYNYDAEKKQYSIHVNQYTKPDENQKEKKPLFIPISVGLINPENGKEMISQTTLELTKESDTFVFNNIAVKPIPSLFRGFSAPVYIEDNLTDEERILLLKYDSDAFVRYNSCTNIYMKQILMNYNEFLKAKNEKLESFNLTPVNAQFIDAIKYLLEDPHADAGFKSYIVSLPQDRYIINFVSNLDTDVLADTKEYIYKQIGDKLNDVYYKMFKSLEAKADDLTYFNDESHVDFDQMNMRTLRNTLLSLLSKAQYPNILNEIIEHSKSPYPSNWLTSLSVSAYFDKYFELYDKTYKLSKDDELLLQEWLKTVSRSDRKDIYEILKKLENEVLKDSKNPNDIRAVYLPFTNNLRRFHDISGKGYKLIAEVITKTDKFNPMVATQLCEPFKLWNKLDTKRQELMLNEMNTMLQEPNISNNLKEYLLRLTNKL

[2] = inhibitors of Bluetongue virus cytopathic effect, confirmation, arbovirus, BSR cells (AID 1250); type: functional;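 further: protection from viral cytopathic effect measured as cell viability by ATP luminescence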
[3] = target: T2, Histone-lysine N-methyltransferase NSD2 (Homo sapiens, UniProt O96028); type: biochemical
T2 sequence (O96028 whole entry): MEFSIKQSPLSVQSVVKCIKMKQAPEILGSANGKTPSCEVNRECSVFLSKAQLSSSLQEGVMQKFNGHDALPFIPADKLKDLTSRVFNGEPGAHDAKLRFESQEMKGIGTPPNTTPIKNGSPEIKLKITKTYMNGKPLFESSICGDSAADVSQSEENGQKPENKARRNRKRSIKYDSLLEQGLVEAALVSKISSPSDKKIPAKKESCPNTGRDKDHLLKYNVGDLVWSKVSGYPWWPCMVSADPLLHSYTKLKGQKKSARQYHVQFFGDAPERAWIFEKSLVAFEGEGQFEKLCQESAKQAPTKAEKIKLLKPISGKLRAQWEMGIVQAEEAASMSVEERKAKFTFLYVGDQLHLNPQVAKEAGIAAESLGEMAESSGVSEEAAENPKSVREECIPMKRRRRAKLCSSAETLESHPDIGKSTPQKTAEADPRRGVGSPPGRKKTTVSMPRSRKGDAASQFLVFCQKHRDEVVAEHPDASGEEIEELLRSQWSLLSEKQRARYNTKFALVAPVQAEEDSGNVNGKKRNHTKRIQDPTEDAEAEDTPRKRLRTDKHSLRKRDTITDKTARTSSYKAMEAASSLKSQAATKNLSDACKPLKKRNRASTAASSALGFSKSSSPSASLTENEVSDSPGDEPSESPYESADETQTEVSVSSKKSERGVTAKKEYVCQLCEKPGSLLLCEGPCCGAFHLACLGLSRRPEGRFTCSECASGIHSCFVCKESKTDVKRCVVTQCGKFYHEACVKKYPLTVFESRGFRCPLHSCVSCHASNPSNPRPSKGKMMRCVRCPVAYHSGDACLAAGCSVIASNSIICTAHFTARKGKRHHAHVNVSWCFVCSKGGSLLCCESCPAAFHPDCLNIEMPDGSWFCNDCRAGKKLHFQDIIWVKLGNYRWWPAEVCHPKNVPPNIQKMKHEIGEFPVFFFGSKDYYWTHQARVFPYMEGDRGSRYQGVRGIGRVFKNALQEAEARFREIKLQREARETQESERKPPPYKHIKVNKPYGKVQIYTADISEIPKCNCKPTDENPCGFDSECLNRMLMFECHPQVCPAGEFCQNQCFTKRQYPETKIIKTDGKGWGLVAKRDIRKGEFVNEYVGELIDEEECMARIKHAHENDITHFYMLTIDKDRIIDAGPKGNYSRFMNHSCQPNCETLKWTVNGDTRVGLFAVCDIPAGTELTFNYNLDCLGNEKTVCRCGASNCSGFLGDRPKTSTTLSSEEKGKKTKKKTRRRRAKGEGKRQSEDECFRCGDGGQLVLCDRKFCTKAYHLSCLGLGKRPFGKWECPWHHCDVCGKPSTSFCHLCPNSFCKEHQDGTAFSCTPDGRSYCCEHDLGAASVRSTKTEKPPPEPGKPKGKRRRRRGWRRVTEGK

Hexokinase HKDC1 = target: T3, Hexokinase HKDC1 (Homo sapiens, UniProt Q2TB90); experiment: HKDC1 hexokinase inhibitors, dose response, biochemical, W721R variant (AID 504729); type: functional
T3 sequence (Q2TB90 whole entry): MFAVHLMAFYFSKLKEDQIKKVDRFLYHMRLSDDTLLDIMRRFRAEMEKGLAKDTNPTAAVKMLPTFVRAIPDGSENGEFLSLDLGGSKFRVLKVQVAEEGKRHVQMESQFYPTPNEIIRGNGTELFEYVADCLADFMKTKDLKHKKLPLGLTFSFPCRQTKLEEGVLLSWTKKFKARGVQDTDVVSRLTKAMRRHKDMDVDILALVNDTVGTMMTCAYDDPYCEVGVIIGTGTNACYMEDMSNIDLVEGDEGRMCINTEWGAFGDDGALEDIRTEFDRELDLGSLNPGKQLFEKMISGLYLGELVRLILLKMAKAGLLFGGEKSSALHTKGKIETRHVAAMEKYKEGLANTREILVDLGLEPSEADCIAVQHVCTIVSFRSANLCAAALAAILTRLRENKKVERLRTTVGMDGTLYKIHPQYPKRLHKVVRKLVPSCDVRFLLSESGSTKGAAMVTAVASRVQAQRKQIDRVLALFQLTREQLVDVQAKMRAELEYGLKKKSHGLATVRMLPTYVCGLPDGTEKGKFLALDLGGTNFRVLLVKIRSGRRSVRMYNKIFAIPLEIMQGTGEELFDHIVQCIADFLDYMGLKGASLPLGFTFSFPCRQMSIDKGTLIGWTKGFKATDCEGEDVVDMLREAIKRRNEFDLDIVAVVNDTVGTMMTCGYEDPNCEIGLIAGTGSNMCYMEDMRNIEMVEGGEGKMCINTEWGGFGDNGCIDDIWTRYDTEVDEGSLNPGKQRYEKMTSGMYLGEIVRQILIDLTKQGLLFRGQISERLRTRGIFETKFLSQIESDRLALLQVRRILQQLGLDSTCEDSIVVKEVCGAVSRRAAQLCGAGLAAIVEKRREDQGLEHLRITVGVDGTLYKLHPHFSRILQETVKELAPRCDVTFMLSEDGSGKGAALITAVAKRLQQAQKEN

[4] = target: Mannose-6-phosphate isomerase (Homo sapiens, UniProt P34949); experiment: human PMI inhibitors, high substrate, primary screen, biochemical, fluorescence intensity, high mannose 6-phosphate (AID 1220)
Mannose-6-phosphate isomerase, sequence (P34949 whole entry): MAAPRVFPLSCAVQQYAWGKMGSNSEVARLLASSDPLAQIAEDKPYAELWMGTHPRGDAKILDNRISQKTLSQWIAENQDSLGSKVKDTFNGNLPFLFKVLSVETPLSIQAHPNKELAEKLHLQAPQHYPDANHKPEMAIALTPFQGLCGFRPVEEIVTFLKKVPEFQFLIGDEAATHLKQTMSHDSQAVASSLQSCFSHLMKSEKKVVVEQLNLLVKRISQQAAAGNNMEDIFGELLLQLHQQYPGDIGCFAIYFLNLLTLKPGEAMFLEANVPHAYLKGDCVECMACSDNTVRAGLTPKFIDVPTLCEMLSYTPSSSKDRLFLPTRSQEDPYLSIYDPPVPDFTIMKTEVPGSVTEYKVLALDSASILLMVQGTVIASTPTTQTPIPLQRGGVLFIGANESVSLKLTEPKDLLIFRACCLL

[5] = target: T4, Rac GTPase-activating protein 1 (Homo sapiens, UniProt Q9H0H5); experiment: MgcRacGAP GTPase-activating activity inhibitors, confirmation, biochemical, ADP Hunter fluorescence, primary and confirmatory (AID 624330); type: functional
T4 sequence (Q9H0H5 whole entry): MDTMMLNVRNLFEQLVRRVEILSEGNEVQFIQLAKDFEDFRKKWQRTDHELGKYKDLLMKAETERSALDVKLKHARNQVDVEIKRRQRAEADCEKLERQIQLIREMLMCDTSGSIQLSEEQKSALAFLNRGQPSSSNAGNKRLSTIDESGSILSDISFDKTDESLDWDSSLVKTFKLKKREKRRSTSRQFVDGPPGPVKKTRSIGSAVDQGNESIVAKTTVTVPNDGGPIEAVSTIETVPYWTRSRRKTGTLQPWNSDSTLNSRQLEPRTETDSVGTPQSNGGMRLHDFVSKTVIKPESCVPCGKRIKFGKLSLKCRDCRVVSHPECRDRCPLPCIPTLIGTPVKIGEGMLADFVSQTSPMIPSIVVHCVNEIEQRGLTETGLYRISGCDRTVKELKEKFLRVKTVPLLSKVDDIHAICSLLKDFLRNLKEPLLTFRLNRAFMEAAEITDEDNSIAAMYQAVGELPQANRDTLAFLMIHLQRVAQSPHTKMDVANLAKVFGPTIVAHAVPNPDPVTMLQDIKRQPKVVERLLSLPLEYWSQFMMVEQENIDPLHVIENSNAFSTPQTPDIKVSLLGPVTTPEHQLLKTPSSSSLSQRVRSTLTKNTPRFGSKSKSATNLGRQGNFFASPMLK

[6] = target: T5, Apoptotic protease-activating factor 1 (Homo sapiens, UniProt O14727); type: functional
T5 sequence (O14727 whole entry): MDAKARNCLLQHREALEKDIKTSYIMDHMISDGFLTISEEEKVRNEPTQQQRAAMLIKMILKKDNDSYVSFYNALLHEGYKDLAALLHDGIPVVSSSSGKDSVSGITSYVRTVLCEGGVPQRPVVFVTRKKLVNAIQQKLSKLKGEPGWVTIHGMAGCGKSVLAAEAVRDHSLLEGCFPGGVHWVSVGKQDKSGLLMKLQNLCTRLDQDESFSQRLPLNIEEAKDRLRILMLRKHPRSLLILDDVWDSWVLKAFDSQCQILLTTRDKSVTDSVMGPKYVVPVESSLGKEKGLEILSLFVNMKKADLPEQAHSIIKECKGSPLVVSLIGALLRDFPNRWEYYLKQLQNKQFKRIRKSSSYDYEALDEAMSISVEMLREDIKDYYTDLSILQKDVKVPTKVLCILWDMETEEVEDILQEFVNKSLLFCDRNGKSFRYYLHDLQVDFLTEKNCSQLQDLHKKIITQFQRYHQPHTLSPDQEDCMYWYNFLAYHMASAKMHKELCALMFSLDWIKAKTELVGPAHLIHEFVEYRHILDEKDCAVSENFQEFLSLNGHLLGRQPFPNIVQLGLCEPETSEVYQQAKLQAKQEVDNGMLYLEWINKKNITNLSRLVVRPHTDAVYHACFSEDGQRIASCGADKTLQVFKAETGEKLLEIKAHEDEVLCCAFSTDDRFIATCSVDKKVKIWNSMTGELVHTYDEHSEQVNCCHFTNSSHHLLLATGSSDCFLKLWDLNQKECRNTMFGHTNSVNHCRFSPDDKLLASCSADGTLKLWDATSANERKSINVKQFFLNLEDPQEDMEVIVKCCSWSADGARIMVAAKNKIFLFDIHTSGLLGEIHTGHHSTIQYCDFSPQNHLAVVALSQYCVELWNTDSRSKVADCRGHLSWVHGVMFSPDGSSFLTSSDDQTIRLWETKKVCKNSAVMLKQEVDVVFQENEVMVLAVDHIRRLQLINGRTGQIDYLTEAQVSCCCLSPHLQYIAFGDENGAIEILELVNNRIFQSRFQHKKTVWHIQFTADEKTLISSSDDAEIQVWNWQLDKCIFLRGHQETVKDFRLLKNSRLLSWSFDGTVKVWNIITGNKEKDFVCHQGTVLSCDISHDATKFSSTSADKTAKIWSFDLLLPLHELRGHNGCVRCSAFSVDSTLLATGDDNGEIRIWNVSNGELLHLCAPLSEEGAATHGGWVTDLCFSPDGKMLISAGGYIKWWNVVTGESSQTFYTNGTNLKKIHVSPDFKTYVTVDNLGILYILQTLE

[7] = target: T6, Low molecular weight phosphotyrosine protein phosphatase (Homo sapiens, UniProt P24666); experiment: LMPTP phosphatase inhibitors, dose response, biochemical, OMFP substrate, fluorescence intensity, set 2 (AID 743307); type: functional
T6 sequence (P24666 whole entry): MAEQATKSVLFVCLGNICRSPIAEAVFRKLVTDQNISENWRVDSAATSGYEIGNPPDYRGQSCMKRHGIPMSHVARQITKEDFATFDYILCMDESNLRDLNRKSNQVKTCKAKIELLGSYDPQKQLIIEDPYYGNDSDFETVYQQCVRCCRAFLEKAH

[8] = target: T6, Low molecular weight phosphotyrosine protein phosphatase; experiment: LMPTP phosphatase inhibitors, colorimetric pNPP readout, dose response, orthogonal assay, biochemical, absorbance, pNPP substrate, LMPTP-A isoform, set 2 (AID 743308); type: functional
[9] = target: Sphingosine 1-phosphate receptor 2 (Homo sapiens, UniProt O95136); experiment: Dose Response Cell Based Assay for Agonists of the S1P2 Receptor. [Related pubchem assays: 729, 736, 843 ]; type: functional
Sphingosine 1-phosphate receptor 2, sequence (O95136 whole entry): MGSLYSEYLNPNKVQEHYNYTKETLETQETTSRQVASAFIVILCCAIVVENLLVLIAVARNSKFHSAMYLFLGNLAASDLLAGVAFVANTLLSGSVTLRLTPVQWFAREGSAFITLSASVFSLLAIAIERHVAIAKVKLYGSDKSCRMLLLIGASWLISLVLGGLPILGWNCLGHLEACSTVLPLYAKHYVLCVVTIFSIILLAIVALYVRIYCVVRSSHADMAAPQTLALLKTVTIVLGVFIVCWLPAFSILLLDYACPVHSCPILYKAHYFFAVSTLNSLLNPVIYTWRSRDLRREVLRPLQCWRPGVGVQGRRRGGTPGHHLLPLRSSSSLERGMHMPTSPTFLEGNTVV

[10] = target: Mitogen-activated protein kinase 10 (Homo sapiens, UniProt P53779); experiment: Dose response biochemical screening assay for inhibitors of c-Jun N-Terminal Kinase 3 (JNK3). [Related pubchem assays: 746 ]
Mitogen-activated protein kinase 10, sequence (P53779 whole entry): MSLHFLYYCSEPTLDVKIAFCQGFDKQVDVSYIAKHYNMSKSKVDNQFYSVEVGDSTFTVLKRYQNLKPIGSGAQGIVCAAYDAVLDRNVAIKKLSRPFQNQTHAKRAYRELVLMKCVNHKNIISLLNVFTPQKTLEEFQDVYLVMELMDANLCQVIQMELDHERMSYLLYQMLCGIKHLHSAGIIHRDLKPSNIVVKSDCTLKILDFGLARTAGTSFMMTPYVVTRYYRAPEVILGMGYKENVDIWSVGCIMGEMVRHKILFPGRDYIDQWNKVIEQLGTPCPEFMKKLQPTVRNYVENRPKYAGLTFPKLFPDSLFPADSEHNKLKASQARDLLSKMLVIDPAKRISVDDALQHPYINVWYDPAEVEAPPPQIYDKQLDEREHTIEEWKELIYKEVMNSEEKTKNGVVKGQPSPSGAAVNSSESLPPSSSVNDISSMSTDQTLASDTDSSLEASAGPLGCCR

Bifunctional protein GlmU, sequence (P9WMN3 whole entry): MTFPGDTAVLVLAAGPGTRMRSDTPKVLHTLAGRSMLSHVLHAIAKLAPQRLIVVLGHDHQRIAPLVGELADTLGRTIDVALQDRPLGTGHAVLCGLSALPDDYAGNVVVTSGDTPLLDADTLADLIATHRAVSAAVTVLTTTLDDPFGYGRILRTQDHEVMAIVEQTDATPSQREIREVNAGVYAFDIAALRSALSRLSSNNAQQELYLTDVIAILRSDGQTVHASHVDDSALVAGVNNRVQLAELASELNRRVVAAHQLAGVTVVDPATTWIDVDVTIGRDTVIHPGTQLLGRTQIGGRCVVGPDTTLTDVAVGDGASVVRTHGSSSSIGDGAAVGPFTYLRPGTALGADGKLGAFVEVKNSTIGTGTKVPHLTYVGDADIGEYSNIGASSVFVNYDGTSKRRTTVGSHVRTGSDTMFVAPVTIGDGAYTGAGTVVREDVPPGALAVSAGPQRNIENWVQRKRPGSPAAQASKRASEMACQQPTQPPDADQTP

In the case of `COc1cc(/C=C(\C#N)c2nc3cc(C)ccc3[nH]2)cc([N+](=O)[O-])c1O`, the IC50 [1] is reported as 94.3 µM (active), the IC50 (Aminopeptidase N) is reported as 16.2 µM (active) and the IC50 [2] is reported as 24.5 µM (active). The AC50 [3] was > 20 µM (inactive) and the IC50 (Hexokinase HKDC1) was 16.1 µM (active).
With `CC1(C)CNc2cc(N)ccc2S1` the IC50 [4] was > 50 µM (not active), the IC50 [5] was 22.9 µM (active) and the IC50 [6] was 7.45 µM (active).
With `CCN(CC)c1nc(-c2ccccc2)nc2ccccc12` the IC50 [7] was 53.1 µM (inactive) and the IC50 [8] was > 80 µM (inactive).
With `COC(=O)c1c[nH]nc1N=C(S)Nc1ccccc1C` the EC50 [9] was > 50 µM (not active).
In the case of `Cc1nn(C)cc1CNC(=O)c1cnn2c(C(F)F)cc(C3CC3)nc12`, the IC50 [10] is reported as 26.8 µM (not active).
